Experimental data as given in ChEMBL document CHEMBL3885861, “Open TG-GATES”.

Species: Rattus norvegicus
Test: Open TG-GATES - Regimen: Single
Assay type: toxicity, organism-based, Sprague-Dawley
Design: regimen Single, gender Male, age 6 weeks
Conditions: in vivo, po, 0 mg/kg, route gavage, dose level Control; for APTT / Bas / Eos / Fbg / Hb / Ht / Lym / MCH / MCHC / MCV / Mono / Neu / PT / Plat / RBC / Ret / WBC: tissue Blood; for KIDNEY_L / KIDNEY_R / KIDNEY_TOTAL: tissue Kidney; for LIVER: tissue Liver; for A/G / ALP / ALT / AST / BUN / CRE / Ca / Cl / DBIL / GLC / IP / K / LDH / Na / PL / RALB / TBIL / TC / TG / TP / gamma-GTP: tissue Plasma

Cc1nnc2n1-c1ccc(Cl)cc1C(c1ccccc1Cl)=NC2 [TRIAZOLAM] showed a TERMINAL_BW (3 h) of 194.1 g, an APTT (3 h) of 20.7 s and a Bas (3 h) of 0%. For the same compound, the Eos (3 h) was 0.8%, the Fbg (3 h) was 266.4 mg/dL and the Hb (3 h) was 13.6 g/dL. For the same compound, the Ht (3 h) was 41.4%, the Lym (3 h) was 76% and the MCH (3 h) was 21.2 pg. It also gave an MCHC (3 h) of 32.8%, an MCV (3 h) of 64.7 fL and a Mono (3 h) of 3%. The Neu (3 h) was 19.2%, the PT (3 h) was 13.6 s and the Plat (3 h) was 126 x10_4/uL. For the same compound, the RBC (3 h) was 640.6 x10_4/ul, the Ret (3 h) was 9.3% and the WBC (3 h) was 96.6 x10_2/uL. The KIDNEY_L (3 h) was 0.8 g, the KIDNEY_R (3 h) was 0.8 g and the KIDNEY_TOTAL (3 h) was 1.6 g. The LIVER (3 h) was 8.3 g, the A/G (3 h) was 0.9 and the ALP (3 h) was 1477.8 IU/L. The ALT (3 h) was 39.8 IU/L, the AST (3 h) was 72.4 IU/L and the BUN (3 h) was 10.6 mg/dL. For the same compound, the CRE (3 h) was 0.2 mg/dL, the Ca (3 h) was 11.3 mg/dL and the Cl (3 h) was 105.6 meq/L. The DBIL (3 h) was 0.012 mg/dL, the GLC (3 h) was 179.2 mg/dL and the IP (3 h) was 9.1 mg/dL. The K (3 h) was 4.3 meq/L, the LDH (3 h) was 100 IU/L and the Na (3 h) was 140.8 meq/L. For the same compound, the PL (3 h) was 150.2 mg/dL, the RALB (3 h) was 2.5 g/dL and the TBIL (3 h) was 0.062 mg/dL. For the same compound, the TC (3 h) was 87.8 mg/dL, the TG (3 h) was 47.6 mg/dL and the TP (3 h) was 5.2 g/dL. The gamma-GTP (3 h) was 1.2 IU/L, the TERMINAL_BW (6 h) was 191.8 g and the APTT (6 h) was 17.3 s. The Bas (6 h) was 0%, the Eos (6 h) was 0.8% and the Fbg (6 h) was 258.8 mg/dL. The Hb (6 h) was 13.6 g/dL, the Ht (6 h) was 41.3% and the Lym (6 h) was 81.4%. It also gave an MCH (6 h) of 21.3 pg, an MCHC (6 h) of 33% and an MCV (6 h) of 64.7 fL. The Mono (6 h) was 2.2%, the Neu (6 h) was 15% and the PT (6 h) was 13.5 s. The Plat (6 h) was 133.4 x10_4/uL, the RBC (6 h) was 639.4 x10_4/ul and the Ret (6 h) was 8.5%. For the same compound, the WBC (6 h) was 82 x10_2/uL, the KIDNEY_L (6 h) was 0.9 g and the KIDNEY_R (6 h) was 0.9 g. It also gave a KIDNEY_TOTAL (6 h) of 1.7 g, an LIVER (6 h) of 7.7 g and an A/G (6 h) of 0.9. The ALP (6 h) was 1476.8 IU/L, the ALT (6 h) was 33.6 IU/L and the AST (6 h) was 72 IU/L. The BUN (6 h) was 7.8 mg/dL, the CRE (6 h) was 0.2 mg/dL and the Ca (6 h) was 10.7 mg/dL. For the same compound, the Cl (6 h) was 106.8 meq/L, the DBIL (6 h) was 0.01 mg/dL and the GLC (6 h) was 177.8 mg/dL. It also gave an IP (6 h) of 9.4 mg/dL, a K (6 h) of 4.1 meq/L and an LDH (6 h) of 104.2 IU/L. For the same compound, the Na (6 h) was 141.8 meq/L, the PL (6 h) was 138 mg/dL and the RALB (6 h) was 2.5 g/dL. For the same compound, the TBIL (6 h) was 0.068 mg/dL, the TC (6 h) was 75.4 mg/dL and the TG (6 h) was 51.6 mg/dL. It also gave a TP (6 h) of 5.1 g/dL, a gamma-GTP (6 h) of 1 IU/L and a TERMINAL_BW (9 h) of 192.1 g. The APTT (9 h) was 17.5 s, the Bas (9 h) was 0% and the Eos (9 h) was 0.6%. It also gave a Fbg (9 h) of 271.8 mg/dL, a Hb (9 h) of 13.2 g/dL and a Ht (9 h) of 40.4%. It also gave a Lym (9 h) of 77.4%, an MCH (9 h) of 20.9 pg and an MCHC (9 h) of 32.7%. It also gave an MCV (9 h) of 64 fL, a Mono (9 h) of 2% and a Neu (9 h) of 19.4%. It also gave a PT (9 h) of 13.7 s, a Plat (9 h) of 112 x10_4/uL and an RBC (9 h) of 631.8 x10_4/ul. For the same compound, the Ret (9 h) was 8.8%, the WBC (9 h) was 96.7 x10_2/uL and the KIDNEY_L (9 h) was 0.9 g. For the same compound, the KIDNEY_R (9 h) was 0.9 g, the KIDNEY_TOTAL (9 h) was 1.7 g and the LIVER (9 h) was 7.6 g. For the same compound, the A/G (9 h) was 0.9, the ALP (9 h) was 1320.2 IU/L and the ALT (9 h) was 40.6 IU/L. For the same compound, the AST (9 h) was 75 IU/L, the BUN (9 h) was 9.2 mg/dL and the CRE (9 h) was 0.2 mg/dL. For the same compound, the Ca (9 h) was 10.6 mg/dL, the Cl (9 h) was 106 meq/L and the DBIL (9 h) was 0.008 mg/dL. For the same compound, the GLC (9 h) was 188.4 mg/dL, the IP (9 h) was 10.4 mg/dL and the K (9 h) was 4.1 meq/L. The LDH (9 h) was 79.8 IU/L, the Na (9 h) was 141.6 meq/L and the PL (9 h) was 132.4 mg/dL. The RALB (9 h) was 2.4 g/dL, the TBIL (9 h) was 0.062 mg/dL and the TC (9 h) was 71.8 mg/dL. The TG (9 h) was 40.8 mg/dL, the TP (9 h) was 5.1 g/dL and the gamma-GTP (9 h) was 1.2 IU/L. It also gave a TERMINAL_BW (24 h) of 207 g, an APTT (24 h) of 20.6 s and a Bas (24 h) of 0%. It also gave an Eos (24 h) of 1%, a Fbg (24 h) of 279.8 mg/dL and a Hb (24 h) of 13.2 g/dL. It also gave a Ht (24 h) of 40.3%, a Lym (24 h) of 78% and an MCH (24 h) of 21.1 pg. It also gave an MCHC (24 h) of 32.9%, an MCV (24 h) of 64.1 fL and a Mono (24 h) of 3%. It also gave a Neu (24 h) of 16.6%, a PT (24 h) of 13.1 s and a Plat (24 h) of 116.7 x10_4/uL. For the same compound, the RBC (24 h) was 628.2 x10_4/ul, the Ret (24 h) was 8.3% and the WBC (24 h) was 87 x10_2/uL. For the same compound, the KIDNEY_L (24 h) was 0.9 g, the KIDNEY_R (24 h) was 0.9 g and the KIDNEY_TOTAL (24 h) was 1.8 g. The LIVER (24 h) was 9.5 g, the A/G (24 h) was 0.9 and the ALP (24 h) was 1736 IU/L. The ALT (24 h) was 50 IU/L, the AST (24 h) was 79.4 IU/L and the BUN (24 h) was 13.6 mg/dL. It also gave a CRE (24 h) of 0.2 mg/dL, a Ca (24 h) of 11 mg/dL and a Cl (24 h) of 105.2 meq/L. For the same compound, the DBIL (24 h) was 0.01 mg/dL, the GLC (24 h) was 178.4 mg/dL and the IP (24 h) was 8.3 mg/dL. For the same compound, the K (24 h) was 4.2 meq/L, the LDH (24 h) was 109.8 IU/L and the Na (24 h) was 141.2 meq/L. It also gave a PL (24 h) of 145.8 mg/dL, an RALB (24 h) of 2.5 g/dL and a TBIL (24 h) of 0.054 mg/dL. The TC (24 h) was 77.4 mg/dL, the TG (24 h) was 80.8 mg/dL and the TP (24 h) was 5.3 g/dL. The gamma-GTP (24 h) was 1 IU/L.
